Measurements reported in patent US9987211B2, “Sunless tanning compounds and compositions” (REGENTS OF THE UNIVERSITY OF MINNESOTA, priority 2013, dated 2018).

System: guinea pig skin
Experiment: Pigment changes with topical application on guinea pig skin (melanin stimulation)
Assay type: in vivo
Description: Compounds 10, 117 and 123 in a solution of 75% PG/25% DMSO at 300 μM and 600 μM were provided in light tight containers and stored at 4 degrees C. Solutions were brought to room temp and vortexed prior to each use. Female Guinea pigs were shaved with electric clippers and the remaining stubble removed with Nair. The dorsal area of each guinea pig was divided into 2-3 sections. Treatment with compounds/vehicle began immediately after Nair application. 25 μL of each solution was applied to the assigned treatment site twice daily for 5 days. Hair removal, monitoring and photography continued once weekly for 30 days. Photos were taken with a Nikon D80 Digital SLR camera and Miravex Antera Melanin sensing camera.

[1] = 0.025 mL of 600 μM applied on guinea pig skin twice daily for five consecutive days, by day 15

Molecule | melanin stimulation relative to surrounding untreated skin (0.025 mL of 300 μM applied on guinea pig skin twice daily for five consecutive days, by day 8) | melanin stimulation relative to surrounding untreated skin [1]
C[C@@]12C(=O)NC(=O)N3CCCN4C(=O)NC(=O)[C@]1(C)[C@H]4[C@H]32 [Compound 10] | marked melanin stimulation | –
Cc1cn(CC(Cn2cc(C)c(=O)[nH]c2=O)C(=O)O)c(=O)[nH]c1=O [Compound 117] | – | marked melanin stimulation
Thymidine dinucleotide 5′-phosphate [reference compound] | – | marked melanin stimulation
